In patent US20100311714A1, “1H-IMIDAZO[4,5-c]QUINOLINONE COMPOUNDS” (priority 2009, published 2010):
In brackets after ≈: the same amount, converted by molar mass.

Key:
[1] = tested on: PKB Ser473 phosphorylation in Rat1-myr-HA-p110 alpha cells; assay: Reverse protein array, PKB Ser473 phosphorylation in Rat1-myr-HA-p110 alpha cells; format: cell-based; details: Rattus norvegicus, 0.5 h, 30 minutes compound incubation, read-out: p-PKB/IC50_alpha
[2] = Parallel Artificial Membrane Permeability Assay (PAMPA) at pH 6.8; format: physicochemical
Excerpt: (§1) The physicochemical properties of relevance for the absorption of the compound, such as the solubility and the membrane permeability, especially at a pH close to neutral pH can be measured using the procedure as described by L. ZHOU et al. in JOURNAL OF PHARMACEUTICAL SCIENCES, VOL. 96, NO. 11, p. 3052-3071 (2007) for the solubility at pH 6.8 and the procedure as described by F. Wohnsland and B. Faller in Journal of Medicinal Chemistry Vol 44, p. 923-930 (2001) for the Parallel Artificial Membrane Permeability Assay (PAMPA) at pH 6.8.
The following permeability log Pe was measured for compound of formula (I) as exemplified below: […]

[3] = High-throughput equilibrium solubility at pH 6.8; format: physicochemical; details: pH 6.8, aqueous buffer, thermodynamic from solid; read-out: HT-Eq Sol/pH 6.8
Excerpt: as §1

[4] = tested on: PKB Ser473 phosphorylation in Rat1-myr-HA-p110 beta cells; assay: Reverse protein array, PKB Ser473 phosphorylation in Rat1-myr-HA-p110 beta cells; format: cell-based; details: Rattus norvegicus, 0.5 h, 30 minutes compound incubation, read-out: p-PKB/IC50_beta

IC50 [1] [µM] | HT-perm/logPe pH6.8 [2] | solubility thermodynamic [3] [mg/mL] | IC50 [4] [µM] | HT-Perm logPe pH6.8 [2] | Compound
0.0298 | −3.3 | 0.027 (≈ 67.9 µM) | 0.0198 | – | COc1ccc(-c2ccc3ncc4c(c3c2)n(-c2cccnc2C)c(=O)n4C)cn1 [Example 2.12, 8-(6-Methoxy-pyridin-3-yl)-3-methyl-1-(2-methyl-pyridin-3-yl)-1,3-dihydro-imidazo[4,5-c]quinolin-2-one]
0.0084 | −3.3 | 0.012 (≈ 28.1 µM) | 0.0157 | – | COc1ccc(-c2ccc3ncc4c(c3c2)n(-c2cccnc2C)c(=O)n4C)cc1OC [Example 2.9, 8-(3,4-Dimethoxy-phenyl)-3-methyl-1-(2-methyl-pyridin-3-yl)-1,3-dihydro-imidazo[4,5-c]quinolin-2-one]
0.019 | – | 0.423 (≈ 857 µM) | 0.05 | −4.5 | Cc1nc(C(F)(F)F)ccc1-n1c(=O)n(C)c2cnc3ccc(-c4cncc(C(C)(C)O)c4)cc3c21 [Example 33.1, 8-[5-(1-Hydroxy-1-methyl-ethyl)-pyridin-3-yl]-3-methyl-1-(2-methyl-6-trifluoromethyl-pyridin-3-yl)-1,3-dihydro-imidazo[4,5-c]quinolin-2-one]
0.0184 | – | 0.061 (≈ 119 µM) | 0.0333 | – | CCOc1ccc(-c2ccc3ncc4c(c3c2)n(-c2ccc(N3CCNCC3)nc2OC)c(=O)n4C)cn1 [Example 9.1, 8-(6-Ethoxy-pyridin-3-yl)-1-(2-methoxy-6-piperazin-1-yl-pyridin-3-yl)-3-methyl-1,3-dihydro-imidazo[4,5-c]quinolin-2-one]
0.0386 | – | 0.125 (≈ 315 µM) | 0.0729 | – | Cc1ncccc1-n1c(=O)n(C)c2cnc3ccc(-c4ccc(CO)nc4)cc3c21 [Example 2.6, 8-(6-Hydroxymethyl-pyridin-3-yl)-3-methyl-1-(2-methyl-pyridin-3-yl)-1,3-dihydro-imidazo[4,5-c]quinolin-2-one]
– | – | 0.014 (≈ 29.8 µM) | – | −4.6 | CCNc1ncc(-c2ccc3ncc4c(c3c2)n(-c2ccc(C(C)(C)O)nc2C)c(=O)n4C)cn1 [Example 31.7, 8-(2-Ethylamino-pyrimidin-5-yl)-1-[6-(1-hydroxy-1-methyl-ethyl)-2-methyl-pyridin-3-yl]-3-methyl-1,3-dihydro-imidazo[4,5-c]quinolin-2-one]
0.017 | – | 0.015 (≈ 30 µM) | 0.208 | – | COc1ncc(-c2ccc3ncc4c(c3c2)n(-c2ccc(N3CC(O)C3)nc2C)c(=O)n4C)c(OC)n1 [Example 29.6, 8-(2,4-Dimethoxy-pyrimidin-5-yl)-1-[6-(3-hydroxy-azetidin-1-yl)-2-methyl-pyridin-3-yl]-3-methyl-1,3-dihydro-imidazo[4,5-c]quinolin-2-one]
0.0339 | – | 0.013 (≈ 23.6 µM) | 0.0206 | – | COc1nc(N2CCNCC2)ccc1-n1c(=O)n(C)c2cnc3ccc(-c4cnc(N)c(C(F)(F)F)c4)cc3c21 [Example 9.2, 8-(6-Amino-5-trifluoromethyl-pyridin-3-yl)-1-(2-methoxy-6-piperazin-1-yl-pyridin-3-yl)-3-methyl-1,3-dihydro-imidazo[4,5-c]quinolin-2-one]
0.372 | −3.4 | 0.039 (≈ 95 µM) | – | – | Cc1cccnc1-n1c(=O)n(C)c2cnc3ccc(-c4ccc(N(C)C)nc4)cc3c21 [Example 3.11, 8-(6-Dimethylamino-pyridin-3-yl)-3-methyl-1-(3-methyl-pyridin-2-yl)-1,3-dihydro-imidazo[4,5-c]quinolin-2-one]
0.301 | – | > 0.397 | 0.689 | – | Cc1cccnc1-n1c(=O)n(C)c2cnc3ccc(-c4ccc(CO)nc4)cc3c21 [Example 3.9, 8-(6-Hydroxymethyl-pyridin-3-yl)-3-methyl-1-(3-methyl-pyridin-2-yl)-1,3-dihydro-imidazo[4,5-c]quinolin-2-one]
– | – | 0.003 (≈ 6.09 µM) | – | −4.4 | Cc1nc(C(C)(C)O)ccc1-n1c(=O)n(C)c2cnc3ccc(-c4cncc(C(C)(C)C#N)c4)cc3c21 [Example 31.6, 2-(5-{1-[6-(1-Hydroxy-1-methyl-ethyl)-2-methyl-pyridin-3-yl]-3-methyl-2-oxo-2,3-dihydro-1H-imidazo[4,5-c]quinolin-8-yl}-pyridin-3-yl)-2-methyl-propionitrile]
0.0927 | – | 0.01 (≈ 23.6 µM) | 0.131 | – | CNC(=O)c1ccc(-c2ccc3ncc4c(c3c2)n(-c2ncccc2C)c(=O)n4C)cc1 [Example 3.5, N-Methyl-4-[3-methyl-1-(3-methyl-pyridin-2-yl)-2-oxo-2,3-dihydro-1H-imidazo[4,5-c]quinolin-8-yl]-benzamide]
0.167 | – | 0.015 (≈ 39.1 µM) | 0.166 | – | Cn1c(=O)n(-c2cccnc2)c2c3cc(-c4ccc(CO)nc4)ccc3ncc21 [Example 5.1, 8-(6-Hydroxymethyl-pyridin-3-yl)-3-methyl-1-pyridin-3-yl-1,3-dihydro-imidazo[4,5-c]quinolin-2-one]
0.15 | – | 0.02 (≈ 48.6 µM) | 0.546 | – | CCOc1ccc(-c2ccc3ncc4c(c3c2)n(-c2ncccc2C)c(=O)n4C)cn1 [Example 3.6, 8-(6-Ethoxy-pyridin-3-yl)-3-methyl-1-(3-methyl-pyridin-2-yl)-1,3-dihydro-imidazo[4,5-c]quinolin-2-one]
0.021 | – | 0.015 (≈ 36.6 µM) | 0.0159 | – | Cc1ncccc1-n1c(=O)n(C)c2cnc3ccc(-c4ccc(C(N)=O)cc4)cc3c21 [Example 2.3, 4-[3-Methyl-1-(2-methyl-pyridin-3-yl)-2-oxo-2,3-dihydro-1H-imidazo[4,5-c]quinolin-8-yl]-benzamide]
0.632 | −3.8 | 0.039 (≈ 94.6 µM) | – | – | CCOc1ncc(-c2ccc3ncc4c(c3c2)n(-c2ncccc2C)c(=O)n4C)cn1 [Example 3.1, 8-(2-Ethoxy-pyrimidin-5-yl)-3-methyl-1-(3-methyl-pyridin-2-yl)-1,3-dihydro-imidazo[4,5-c]quinolin-2-one]
0.178 | – | 0.005 (≈ 12.2 µM) | 0.259 | – | Cc1cccnc1-n1c(=O)n(C)c2cnc3ccc(-c4ccc(C(N)=O)cc4)cc3c21 [Example 3.3, 4-[3-Methyl-1-(3-methyl-pyridin-2-yl)-2-oxo-2,3-dihydro-1H-imidazo[4,5-c]quinolin-8-yl]-benzamide]
– | – | 0.003 (≈ 5.9 µM) | – | −4.3 | Cc1nc(C(C)(C)O)ccc1-n1c(=O)n(C)c2cnc3ccc(-c4cnc(N)c(C(F)(F)F)c4)cc3c21 [Example 31.5, 8-(6-Amino-5-trifluoromethyl-pyridin-3-yl)-1-[6-(1-hydroxy-1-methyl-ethyl)-2-methyl-pyridin-3-yl]-3-methyl-1,3-dihydro-imidazo[4,5-c]quinolin-2-one]
– | – | 0.005 (≈ 10.6 µM) | – | −3.7 | CCOc1ccc(-c2ccc3ncc4c(c3c2)n(-c2ccc(C(C)(C)O)nc2C)c(=O)n4C)cn1 [Example 31.4, 8-(6-Ethoxy-pyridin-3-yl)-1-[6-(1-hydroxy-1-methyl-ethyl)-2-methyl-pyridin-3-yl]-3-methyl-1,3-dihydro-imidazo[4,5-c]quinolin-2-one]
0.0057 | – | 0.009 (≈ 19.9 µM) | 0.0068 | – | CNc1ccc(-c2ccc3ncc4c(c3c2)n(-c2ccc(N3CCC3)nc2C)c(=O)n4C)cn1 [Example 23.4, 1-(6-Azetidin-1-yl-2-methyl-pyridin-3-yl)-3-methyl-8-(6-methylamino-pyridin-3-yl)-1,3-dihydro-imidazo[4,5-c]quinolin-2-one]
– | – | 0.111 (≈ 220 µM) | – | −4.3 | Cc1nc(C(C)(C)O)ccc1-n1c(=O)n(C)c2cnc3ccc(-c4cncc(C5(C#N)CCC5)c4)cc3c21 [Example 31.8, 1-(5-{1-[6-(1-Hydroxy-1-methyl-ethyl)-2-methyl-pyridin-3-yl]-3-methyl-2-oxo-2,3-dihydro-1H-imidazo[4,5-c]quinolin-8-yl}-pyridin-3-yl)-cyclobutanecarbonitrile]
0.114 | – | > 0.469 | 0.0842 | – | Cc1ncccc1-n1c(=O)n(C)c2cnc3ccc(-c4ccc(OCCCN(C)C)nc4)cc3c21 [Example 2.10, 8-[6-(3-Dimethylamino-propoxy)-pyridin-3-yl]-3-methyl-1-(2-methyl-pyridin-3-yl)-1,3-dihydro-imidazo[4,5-c]quinolin-2-one]
0.00656 | – | 0.002 (≈ 4.7 µM) | 0.0169 | – | COc1ncccc1-n1c(=O)n(C)c2cnc3ccc(-c4ccc(C(N)=O)cc4)cc3c21 [Example 1.6, 4-[1-(2-Methoxy-pyridin-3-yl)-3-methyl-2-oxo-2,3-dihydro-1H-imidazo[4,5-c]quinolin-8-yl]-benzamide]
0.0116 | – | 0.017 (≈ 44.5 µM) | 0.0192 | – | Cc1ncccc1-n1c(=O)n(C)c2cnc3ccc(-c4ccc(N)nc4)cc3c21 [Example 2.7, 8-(6-Amino-pyridin-3-yl)-3-methyl-1-(2-methyl-pyridin-3-yl)-1,3-dihydro-imidazo[4,5-c]quinolin-2-one]
0.0211 | – | 0.022 (≈ 46.1 µM) | 0.0151 | – | Cc1nc(N2CCC2)ccc1-n1c(=O)n(C)c2cnc3ccc(-c4cncc(N5CCC5)c4)cc3c21 [Example 23.1, 1-(6-Azetidin-1-yl-2-methyl-pyridin-3-yl)-8-(5-azetidin-1-yl-pyridin-3-yl)-3-methyl-1,3-dihydro-imidazo[4,5-c]quinolin-2-one]
